Tests used:
Format in all cases: cell-based
[1] = test system: Candida; test: Modified Kirby-Bauer Assay Against Candida; conditions: 10 mg/ml
Method: (§1) Modified Kirby-Bauer Susceptibility Testing (see, e.g., Finegold et al. "Diagnostic Microbiology," 6th Ed., C. V. Mosby Co., St. Louis, (1982), pp. 542-543: Microorganisms are grown on a solid medium in order to ensure a pure homogeneous culture. This requires an 18-24 hour grow out. Once purity is determined, the microorganism is sub-cultured by picking off one to three colonies from the solid medium using a sterile loop, and placing the colonies onto an appropriate liquid medium (e.g., Brain Heart Infusion for bacteria and Sabouraud's Dextrose for yeast or fungi). The microorganisms are then allowed to grow for 4-6 hours at the appropriate atmospheric and temperature conditions. After the 4-6 hour grow out, the microorganisms are ready for testing.
(§2) The MacFarland standard is prepared by mixing Barium Chloride with sulfuric acid in the appropriate proportions, as is known in the art (see, e.g. Finegold et al., supra). Once the cultures have been standardized, sterile cotton swabs are used to apply the microorganisms to agar plates for testing. The plates are swabbed in three different directions, rotating the plates 60 each time. After the microorganisms have been applied to the plate, 10-12 paper disks (1/4") in diameter are spaced evenly around the plate. […] The zones are measured in millimeters and recorded. […]

[2] = test system: Saccharomyces; test: Modified Kirby-Bauer Assay Against Saccharomyces; conditions: 10 mg/ml
Method: as §1, §2

[3] = test system: E. Coli; test: Modified Kirby-Bauer Assay Against E. Coli; conditions: Escherichia coli, control, 10 mg/ml, read-out: zone size of inhibited microbial growth (diameter), control
Method: as §1, §2

[4] = test system: Staphylococcus aureus; test: Modified Kirby-Bauer Assay Against Staphylococcus aureus; conditions: read-out: zone size of inhibited microbial growth (diameter), control
Method: as §1, §2

Row | Structure (SMILES) | zone size of inhibited microbial growth (diameter), control [1] | zone size of inhibited microbial growth (diameter), control [2] | zone of inhibition at 10000 µg/mL [3] | zone of inhibition at 10000 µg/mL [4]
1 | CCC(C)n1ncn(-c2ccc(N3CCN(c4ccc(OCC5COC(Cn6cncn6)(c6ccc(Cl)cc6Cl)O5)cc4)CC3)cc2)c1=O (single isomer, unassigned; (+)) [(+) cis-itraconazole] | 12 mm | 12 mm |  | 
2 | CN(C)C1C(O)=C(C(N)=O)C(=O)C2(O)C(O)=C3C(=O)c4c(O)cccc4C(C)(O)C3CC12 (stereo not drawn) [Tetracylcine] |  |  | 22 mm | 25 mm
3 | CCC(C)n1ncn(-c2ccc(N3CCN(c4ccc(OCC5COC(Cn6cncn6)(c6ccc(Cl)cc6Cl)O5)cc4)CC3)cc2)c1=O (single isomer, unassigned; (-)) [(-) cis itraconazole] | 15 mm | 15 mm |  | 
